What was measured:
p110α/p85α = p110α/p85α (Homo sapiens (Human), UniProt P42336); assay: PI 3-Kinase (human) HTRF assay, p110α/p85α; assay type: biochemical; conditions: read-out: PI3K α IC50
p110γ = p110γ (Homo sapiens (Human), UniProt P48736); assay: PI 3-Kinase (human) HTRF assay, p110γ; assay type: biochemical; conditions: read-out: PI3K γ IC50
[1] = system: Human tumor cell lines (e.g., MCF7, U-87 MG, MDA-MB-468, PC-3); assay: Tumor cell line proliferation assay (Alamar Blue); assay type: cell-based; conditions: PC3 cells, read-out: PC3 proliferation (nM)*
Procedure: The ability of one or more subject compounds to inhibit tumor cell line proliferation is determined according to standard procedures known in the art. For instance, an in vitro cellular proliferation assay can be performed to measure the metabolic activity of live cells. The assay is performed in a 96 well microtiter plate using Alamar Blue reduction. Human tumor cell lines are obtained from ATCC (e.g., MCF7, U-87 MG, MDA-MB-468, PC-3), grown to confluency in T75 flasks, trypsinized with 0.25% trypsin, washed one time with Tumor Cell Media (DMEM+10% FBS), and plated in 90 ul at 5,000 cells/well in Tumor Cell Media. A compound disclosed herein is diluted in Tumor Cell Media and added in a 10 ul volume. Plates are incubated for 72 hours at 37 C and 5% CO2. A volume of 10 uL of Alamar Blue reagent is added to each well and plates are incubated for 3 hours at 37 C and 5% CO2. Alamar Blue fluoresce is read at 560Ex/590Em, and IC50 values are calculated using GraphPad Prism 5.

p110β/p85α = p110β/p85α (Homo sapiens (Human), UniProt P42338); assay: PI 3-Kinase (human) HTRF assay, p110β/p85α; assay type: biochemical; conditions: read-out: PI3K β IC50
p110δ/p85α = p110δ/p85α (Homo sapiens (Human), UniProt O00329); assay: PI 3-Kinase (human) HTRF assay, p110δ/p85α; assay type: biochemical; conditions: read-out: PI3K δ IC50
recombinant mTOR = recombinant mTOR (Homo sapiens (Human), UniProt P42345); assay: mTOR inhibition assay (radiometric or LanthaScreen TR-FRET); assay type: biochemical; conditions: read-out: MTORC IC50
[2] = system: tumor cells with a PI3Kα mutation (e.g., MDA-MB-361 and T47D); assay: Proliferation of tumor cells with PI3Kα mutation; assay type: cell-based; conditions: Homo sapiens; T47D cells; read-out: T47D proliferation

Chain of recombinant mTOR (P42345 1360-2549): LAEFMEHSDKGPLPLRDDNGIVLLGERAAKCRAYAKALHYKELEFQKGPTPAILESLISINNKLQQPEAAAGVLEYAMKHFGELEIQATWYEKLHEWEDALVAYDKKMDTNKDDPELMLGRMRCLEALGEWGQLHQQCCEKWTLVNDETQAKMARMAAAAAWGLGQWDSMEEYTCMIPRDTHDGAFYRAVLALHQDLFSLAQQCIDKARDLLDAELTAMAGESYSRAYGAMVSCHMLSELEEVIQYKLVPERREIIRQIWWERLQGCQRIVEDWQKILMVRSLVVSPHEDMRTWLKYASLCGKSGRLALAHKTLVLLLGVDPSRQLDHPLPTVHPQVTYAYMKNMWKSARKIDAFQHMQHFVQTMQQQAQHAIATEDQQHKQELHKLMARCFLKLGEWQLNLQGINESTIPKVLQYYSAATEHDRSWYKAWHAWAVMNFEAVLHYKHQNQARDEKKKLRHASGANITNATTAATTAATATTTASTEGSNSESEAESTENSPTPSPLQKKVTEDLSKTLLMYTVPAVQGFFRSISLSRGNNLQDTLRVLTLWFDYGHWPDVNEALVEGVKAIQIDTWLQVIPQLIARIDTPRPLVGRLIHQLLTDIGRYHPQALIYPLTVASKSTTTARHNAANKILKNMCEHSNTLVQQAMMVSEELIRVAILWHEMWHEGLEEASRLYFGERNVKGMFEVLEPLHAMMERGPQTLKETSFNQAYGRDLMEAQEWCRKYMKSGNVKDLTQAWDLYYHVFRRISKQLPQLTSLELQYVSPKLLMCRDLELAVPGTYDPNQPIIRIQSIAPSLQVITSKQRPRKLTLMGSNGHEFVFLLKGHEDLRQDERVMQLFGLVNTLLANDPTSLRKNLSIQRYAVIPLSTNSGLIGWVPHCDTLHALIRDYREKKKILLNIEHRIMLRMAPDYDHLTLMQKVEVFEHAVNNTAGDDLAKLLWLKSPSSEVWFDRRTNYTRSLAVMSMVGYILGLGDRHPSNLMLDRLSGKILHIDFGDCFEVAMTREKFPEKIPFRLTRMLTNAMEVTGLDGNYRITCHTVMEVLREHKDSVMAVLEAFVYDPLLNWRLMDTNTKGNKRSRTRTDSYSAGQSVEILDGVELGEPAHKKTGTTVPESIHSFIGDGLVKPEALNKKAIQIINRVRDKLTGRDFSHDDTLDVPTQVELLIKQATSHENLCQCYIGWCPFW
Chain of p110β/p85α (P42338 whole entry): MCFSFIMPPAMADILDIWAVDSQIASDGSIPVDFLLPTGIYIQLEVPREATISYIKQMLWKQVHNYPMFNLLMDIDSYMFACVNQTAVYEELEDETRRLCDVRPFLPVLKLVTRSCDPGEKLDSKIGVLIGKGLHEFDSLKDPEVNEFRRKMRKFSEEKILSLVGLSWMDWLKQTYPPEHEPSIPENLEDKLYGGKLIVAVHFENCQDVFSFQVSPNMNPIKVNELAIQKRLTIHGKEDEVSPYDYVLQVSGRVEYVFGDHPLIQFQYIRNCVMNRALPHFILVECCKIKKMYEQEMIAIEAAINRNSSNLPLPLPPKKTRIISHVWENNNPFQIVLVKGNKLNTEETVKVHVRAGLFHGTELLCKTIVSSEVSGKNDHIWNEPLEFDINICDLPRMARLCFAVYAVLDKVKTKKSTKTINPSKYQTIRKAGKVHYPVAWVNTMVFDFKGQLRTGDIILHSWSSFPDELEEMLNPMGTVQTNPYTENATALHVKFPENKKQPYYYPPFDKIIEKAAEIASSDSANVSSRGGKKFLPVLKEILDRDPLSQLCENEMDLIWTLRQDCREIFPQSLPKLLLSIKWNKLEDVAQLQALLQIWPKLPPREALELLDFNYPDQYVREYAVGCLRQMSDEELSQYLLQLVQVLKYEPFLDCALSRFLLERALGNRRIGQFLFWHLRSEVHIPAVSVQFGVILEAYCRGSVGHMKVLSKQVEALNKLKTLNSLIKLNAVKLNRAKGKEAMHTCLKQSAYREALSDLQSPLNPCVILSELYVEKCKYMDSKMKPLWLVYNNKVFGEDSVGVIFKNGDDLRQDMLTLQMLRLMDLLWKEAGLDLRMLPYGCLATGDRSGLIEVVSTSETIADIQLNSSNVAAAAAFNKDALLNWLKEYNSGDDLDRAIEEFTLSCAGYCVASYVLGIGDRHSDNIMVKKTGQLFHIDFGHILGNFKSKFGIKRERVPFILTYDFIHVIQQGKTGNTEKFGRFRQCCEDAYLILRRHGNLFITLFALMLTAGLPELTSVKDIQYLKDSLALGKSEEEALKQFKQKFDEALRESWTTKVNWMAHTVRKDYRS
Chain of p110β/p85α (P27986 whole entry partner): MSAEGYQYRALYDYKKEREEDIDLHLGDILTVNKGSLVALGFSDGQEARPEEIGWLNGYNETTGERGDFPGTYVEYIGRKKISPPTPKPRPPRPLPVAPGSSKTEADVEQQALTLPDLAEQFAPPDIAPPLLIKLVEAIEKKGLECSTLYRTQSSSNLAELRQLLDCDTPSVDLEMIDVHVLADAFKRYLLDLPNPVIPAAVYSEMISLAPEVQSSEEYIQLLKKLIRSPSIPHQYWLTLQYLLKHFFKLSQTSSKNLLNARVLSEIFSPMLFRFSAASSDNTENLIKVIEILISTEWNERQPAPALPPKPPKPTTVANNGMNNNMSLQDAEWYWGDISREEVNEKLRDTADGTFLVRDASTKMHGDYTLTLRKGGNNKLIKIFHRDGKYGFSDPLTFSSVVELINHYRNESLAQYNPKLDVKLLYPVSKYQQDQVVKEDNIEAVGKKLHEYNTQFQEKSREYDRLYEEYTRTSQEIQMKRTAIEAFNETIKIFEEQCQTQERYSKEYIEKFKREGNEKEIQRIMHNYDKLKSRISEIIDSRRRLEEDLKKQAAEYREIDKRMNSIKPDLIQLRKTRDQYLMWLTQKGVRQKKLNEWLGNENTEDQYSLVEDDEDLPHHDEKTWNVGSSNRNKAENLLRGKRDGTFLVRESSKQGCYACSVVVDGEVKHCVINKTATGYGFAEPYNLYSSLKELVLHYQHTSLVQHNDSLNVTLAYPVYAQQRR
Chain of p110δ/p85α (O00329 whole entry): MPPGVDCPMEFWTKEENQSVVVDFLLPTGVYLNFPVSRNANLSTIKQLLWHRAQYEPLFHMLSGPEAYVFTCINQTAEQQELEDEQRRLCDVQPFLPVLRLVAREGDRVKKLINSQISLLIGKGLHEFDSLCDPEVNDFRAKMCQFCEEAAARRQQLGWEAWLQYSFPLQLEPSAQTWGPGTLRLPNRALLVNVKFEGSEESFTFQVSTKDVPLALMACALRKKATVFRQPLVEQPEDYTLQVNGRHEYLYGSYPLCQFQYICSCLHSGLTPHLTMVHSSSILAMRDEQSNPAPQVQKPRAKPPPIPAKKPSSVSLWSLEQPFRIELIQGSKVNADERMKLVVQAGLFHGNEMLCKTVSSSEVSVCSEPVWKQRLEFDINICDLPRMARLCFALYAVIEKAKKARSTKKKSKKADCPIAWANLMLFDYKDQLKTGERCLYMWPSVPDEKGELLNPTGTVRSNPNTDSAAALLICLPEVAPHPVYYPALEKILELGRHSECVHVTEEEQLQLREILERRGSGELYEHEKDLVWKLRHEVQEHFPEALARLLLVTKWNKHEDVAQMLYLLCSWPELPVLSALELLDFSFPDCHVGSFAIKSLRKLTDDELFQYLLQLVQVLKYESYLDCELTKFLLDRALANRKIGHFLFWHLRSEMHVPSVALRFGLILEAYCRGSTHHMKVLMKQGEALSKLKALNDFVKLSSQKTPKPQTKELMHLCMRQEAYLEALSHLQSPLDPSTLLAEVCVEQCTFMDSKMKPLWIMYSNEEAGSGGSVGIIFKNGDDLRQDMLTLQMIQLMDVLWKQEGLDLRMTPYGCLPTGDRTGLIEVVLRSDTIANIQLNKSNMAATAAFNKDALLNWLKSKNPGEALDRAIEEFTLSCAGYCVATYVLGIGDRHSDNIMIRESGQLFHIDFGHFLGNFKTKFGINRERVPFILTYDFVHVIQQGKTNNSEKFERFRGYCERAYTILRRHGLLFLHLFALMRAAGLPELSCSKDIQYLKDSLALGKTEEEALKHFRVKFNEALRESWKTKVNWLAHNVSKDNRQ
Chain of p110δ/p85α (P27986 whole entry partner): as the sequence (P27986 whole entry partner) above

| Compound | IC50 (p110α/p85α) | IC50 (p110γ) | IC50 [1] | IC50 (p110β/p85α) | IC50 (p110δ/p85α) | IC50 (recombinant mTOR) | IC50 [2] |
| --- | --- | --- | --- | --- | --- | --- | --- |
| CC(=O)Nc1nc2ccc(-c3ccc4nccc(-c5ccncc5)c4c3)cc2s1 [compound 2] | < 1 µM | < 1 µM | < 10000 nM | – | – | – | – |
| Nc1nc2ccc(-c3ccc4nccc(-c5ccncc5)c4c3)cc2o1 [compound 4] | < 0.1 µM | < 0.1 µM | < 100 nM | < 0.1 µM | < 0.1 µM | < 1 µM | – |
| Cn1c(=O)n(-c2ccc(C(C)(C)C#N)cc2)c2c3cc(-c4ccc5oc(N)nc5c4)ccc3ncc21 [compound 7] | < 0.1 µM | < 0.1 µM | < 100 nM | < 0.1 µM | < 0.1 µM | < 0.1 µM | – |
| Nc1nc2cc(-c3ccc4ncc(-c5ccncc5)n4n3)ccc2o1 [compound 10] | < 0.1 µM | < 0.1 µM | < 1000 nM | < 1 µM | – | < 1 µM | < 1 µM |
| CN1CCC(Nc2ncnc3ccc(-c4ccc5oc(N)nc5c4)cc23)CC1 [compound 35] | < 0.1 µM | < 0.1 µM | – | – | < 0.1 µM | < 10 µM | < 10 µM |
| CN1CCC(n2cnc3ccc(-c4ccc5oc(N)nc5c4)cc3c2=O)CC1 [compound 36] | < 0.1 µM | – | – | – | < 10 µM | < 10 µM | < 10 µM |
| Cn1cc(-c2cnc3ccc(-c4ccc5oc(N)nc5c4)cn23)cn1 [compound 41] | < 0.1 µM | < 1 µM | – | – | < 1 µM | < 10 µM | < 10 µM |
| Nc1nc2cc(-c3ccc4ncnc(OC5CCOCC5)c4c3)ccc2o1 [compound 47] | < 0.1 µM | < 1 µM | – | < 1 µM | < 1 µM | < 0.1 µM | < 1 µM |
| Nc1nc2cc(-c3ccc4ncc(OC5CCOCC5)nc4c3)ccc2o1 [compound 49] | < 0.1 µM | < 1 µM | – | – | < 10 µM | < 10 µM | < 10 µM |
| Cc1nc2ccc(-c3ccc4oc(N)nc4c3)nn2c1-c1ccncc1 [compound 56] | < 0.1 µM | < 0.1 µM | – | < 1 µM | – | < 1 µM | < 10 µM |
| Nc1nc2cc(-c3ccc4ncc(N5CCOCC5)nc4c3)ccc2o1 [compound 64] | < 0.1 µM | < 0.1 µM | – | < 1 µM | – | < 10 µM | < 10 µM |
| CC(C)N1CCC(n2cnc3ccc(-c4ccc5oc(N)nc5c4)cc3c2=O)CC1 [compound 74] | < 0.1 µM | < 10 µM | – | < 10 µM | – | < 10 µM | < 10 µM |
| Nc1nc2cc(-c3ccc4ncc(-c5cccnc5)nc4c3)ccc2o1 [compound 76] | < 0.1 µM | < 1 µM | – | – | – | < 10 µM | < 10 µM |
| CCOC(=O)N1CCN(c2cnc3ccc(-c4ccc5oc(N)nc5c4)cc3n2)CC1 [compound 119] | < 0.1 µM | < 10 µM | – | < 10 µM | < 10 µM | < 10 µM | < 10 µM |
| CS(=O)(=O)N1CCN(Cc2cc3nc(-c4ccc5oc(N)nc5c4)nc(N4CCOCC4)c3s2)CC1 [compound 129] | < 0.1 µM | < 0.1 µM | < 1000 nM | < 1 µM | < 1 µM | < 1 µM | – |
| CN1CCC(N(C)C(=O)c2cnc3ccc(-c4ccc5oc(N)nc5c4)cn23)CC1 [compound 165] | < 1 µM | – | < 1000 nM | < 10 µM | < 10 µM | – | – |
| Nc1nc2cc(-c3ccc4ncc(N5CC(C(=O)N6CCOCC6)C5)nc4c3)ccc2o1 [compound 169] | < 0.1 µM | < 1 µM | – | < 1 µM | < 1 µM | < 10 µM | < 1 µM |
| CN1CCN(C(=O)C2CN(c3cnc4ccc(-c5ccc6oc(N)nc6c5)cc4n3)C2)CC1 [compound 170] | < 0.1 µM | < 10 µM | – | < 1 µM | < 1 µM | < 10 µM | < 1 µM |

Reference: patent US11547697B2, “Heterocyclic compounds and uses thereof” (MILLENNIUM PHARMACEUTICALS, INC., priority 2009, dated 2023)
